melting point [°C] | SMILES
168 to 170 | CCOC(=O)c1c(NC(=O)CCl)sc(C(=O)OC(C)(C)C)c1C
115 to 117 | COc1sc(C=O)cc1Br
174 to 176 | CC(C)CC(=O)Nc1ccc(Cl)c(C(=O)O)c1
56 to 58 | C#CCNS(C)(=O)=O
84 to 86 | O=C(Nc1cccc(Br)n1)c1ccccc1
52 to 54 | Clc1cnc(Cl)c(-c2ccccc2)n1
149 to 151 | CC(=O)N1CC(C(=O)O)C1
139 to 141 | CCn1nc(C)c(C(=O)O)c1C
89 to 91 | O=C(CCl)NCc1ccccc1S(=O)(=O)N1CCCCC1
67 to 69 | Cc1[nH]oc(=N)c1Br
139 to 141 | COC(=O)c1c[nH]nn1
162 to 164 | CC(C)CC(N)C(=O)N1CCNC(=O)C1 (centres undefined)
226 to 228 | O=C(O)c1cc(Br)cc([N+](=O)[O-])c1Cl
210 to 212 | NC(=O)c1cccc(C(N)=S)c1
229 to 231 | O=C(CCn1ccnc1)NC1CCC(C(=O)O)CC1 (centres undefined)
212 to 214 | c1ccc2oc(-c3nn[nH]n3)cc2c1
149 to 151 | O=C(O)c1csc(Cc2ccc(F)cc2)n1
30 to 41 | Fc1ccc(-c2cnc(CBr)o2)cc1
134 to 136 | CN(Cc1ccccc1)C(N)=O
278 to 282 | Cc1cc2[nH]c(=O)c3ccccc3n2n1
119 to 121 | CN(C)C1CCN(c2ccc(N)cc2)CC1
71 to 75 | Clc1ccc(SCc2nc(Cl)c3c4c(sc3n2)CCC4)cc1
134 to 136 | Cc1nc(Cl)ccc1CC(=O)O

melting point [°C] | SMILES
191 to 193 | O=C(O)c1ccc(OCc2cscn2)cc1
146 to 148 | Nc1ncn(-c2ccccc2)n1
182 to 184 | NC(=NO)c1ccc(-c2ccccc2)cc1
149 to 151 | O=C(O)C(Cc1ccccc1)NC(=O)C(c1ccccc1)c1ccccc1 (centres undefined)
130 to 132 | CC1CN(c2ccc(NC(=O)OCC(F)(F)F)cc2F)CC(C)O1 (centres undefined)
124 to 126 | Cc1ccc(S(=O)(=O)NC(C)(C)C)cc1N
109 to 111 | O=C(O)Cc1csc(-c2cccc(C(F)(F)F)c2)n1
254 to 256 | O=C(COc1ccccc1)Nc1ccc(O)cc1C(=O)O
140 to 142 | O=C(O)CCc1ncc(-c2ccco2)o1
133 to 135 | O=C(O)c1ccc(Cl)c(S(=O)(=O)NCc2ccco2)c1
152 to 154 | Cc1cc(Br)cn2c(C=O)cnc12
134 to 136 | COC(=O)C(=O)CN1C(=O)c2ccccc2C1=O
144 to 146 | Nc1sccc1C(=O)NC1CC1
195 to 197 | O=C(O)/C=C/c1cccc(-c2ccccc2)c1
158 to 160 | O=C(O)c1cccc(-c2noc(C3CC3)n2)c1
84 to 86 | O=C(O)CCc1ccc(O)c(Cl)c1
82 to 84 | CC(=O)c1cccc(N2CCOC2=O)c1
163 to 165 | O=C(O)C1CCCN(C(=O)c2ccc(Cl)c(Cl)c2)C1 (centres undefined)
244 to 246 | O=C(O)C1=C(c2ccccc2)N2CCS(=O)(=O)N=C2S1
328 to 330 | Cc1sc2nc(S)[nH]c(=O)c2c1C
38 to 40 | CCCCOc1ccc(C=O)cc1OCC
58 to 60 | CN1CCN(CC(N)c2ccccc2)CC1 (centres undefined)
240 to 242 | O=C(O)c1c[nH]c(-c2ccccc2)n1

melting point [°C] | SMILES
112 to 114 | CC(=O)c1cccc(NC(=O)CCl)c1
146 to 148 | Cc1ccc(CN(C)C(N)=O)cc1
229 to 231 | Cc1nc2c([nH]1)CCC(C(=O)O)C2 (centres undefined)
246 to 248 | O=C(Nc1nnc(-c2ccccn2)s1)OCC(F)(F)F
249 to 251 | Cc1ccc(NC(=O)c2c(F)cccc2Cl)c(C(=O)O)c1
99 to 101 | Cc1cccc(OCCC(=O)O)c1
158 to 160 | CC(=O)CSc1ccccc1C(=O)O
266 to 268 | Cn1c(=O)[nH]c2cnccc21
57 to 59 | Cc1cnc2ccccc2c1Cl
170 to 172 | Nc1ccc(-c2nc3ccccc3o2)cc1
152 to 154 | Nc1ccc(S(N)(=O)=O)c(F)c1
147 to 149 | COCCCN1C(=O)c2ccc(C(=O)O)cc2C1=O
63 to 65 | CCC(Oc1ccccc1F)C(=O)O (centres undefined)
94 to 96 | O=C1C(Br)CCN1c1ccc(Cl)c(F)c1 (centres undefined)
94 to 96 | COc1ccccc1CNC(=O)CCl
121 to 123 | FC(F)Oc1ccc(-c2nnc(S)o2)cc1
192 to 194 | CN(C)CCn1c(S)nc2ccsc2c1=O
71 to 73 | O=C(O)C1(Cc2ccc(Cl)cc2)CCCC1
221 to 223 | O=C1COc2cc([N+](=O)[O-])c(F)cc2N1
249 to 251 | Nc1ccc2c(Br)ccc(Cl)c2n1
96 to 98 | O=CNc1ccc2c(c1)OCO2
292 to 294 | COc1cccc(Cn2c(N)cc(=O)[nH]c2=O)c1
149 to 151 | CCCCc1nc2ccccc2[nH]1

melting point [°C] | SMILES
295 to 297 | Cc1cc(N)nc(S)n1
248 to 250 | Cc1[nH]c2ccc(Cl)cc2c1C=O
297 to 299 | Nn1c(=O)[nH]c2ccccc2c1=O
61 to 63 | Cn1nc(-c2ccccc2)c(C=O)c1Cl
< 17 | O=C(CCl)N(Cc1cccs1)C1CCS(=O)(=O)C1 (centres undefined)
279 to 281 | CNC1(C(=O)O)CCc2ccccc21 (centres undefined)
183 to 185 | O=CNc1cc([N+](=O)[O-])ccc1Cl
251 to 253 | NC(C(=O)O)c1ccc2ccccc2c1 (centres undefined)
80 to 82 | CC(=O)CCCOc1ccccc1C(N)=O
129 to 131 | CN(C)C1=CC(=C(N)N=O)C=CN1
189 to 191 | N#Cc1cc(F)c(C(=O)O)c(F)c1
127 to 129 | CC(C)(C)OC(=O)Nc1cccc(C#N)c1
34 to 37 | NOC1CCCCO1 (centres undefined)
195 to 197 | Sc1nnc(-c2ccccc2Br)[nH]1
201 to 203 | Cn1cc(S(=O)(=O)NCC(=O)O)cn1
207 to 209 | COc1ccc(NS(=O)(=O)c2c[nH]c(C(=O)O)c2)cc1Cl
89 to 91 | Cc1cc(Br)cc([N+](=O)[O-])c1O
127 to 129 | O=S1(=O)CCC(Br)CC1
239 to 241 | Cc1ccc(Br)c2c1NC(=O)C2=O
110 to 112 | CC(=O)N(Cc1ccc(N)cc1)C(C)C
69 to 71 | Cc1cc2cc(Br)ccc2s1
179 to 181 | O=C(O)c1ccc([N+](=O)[O-])c(Br)n1
197 to 199 | CN(C)S(=O)(=O)c1c[nH]c(C(=O)O)c1

melting point [°C] | SMILES
207 to 209 | Nc1nnc(-c2cccnc2)[nH]1
43 to 45 | CNCCCOc1ccc(S(C)(=O)=O)cc1
189 to 191 | Cn1c(S)nnc1CO
202 to 204 | Cc1cc(NC(=O)c2ccccc2I)sc1C(=O)O
46 to 48 | ClCc1coc(-c2ccccc2Br)n1
229 to 231 | CCCCN(C(=O)CCl)c1c(N)n(CCC)c(=O)[nH]c1=O
159 to 161 | Cc1cccc(COc2ccc(S(N)(=O)=O)cc2)c1
199 to 201 | COc1cc2cc(C(=O)O)[nH]c2cc1OC
204 to 206 | CC(SCc1nc2ccccc2c(=O)[nH]1)C(=O)O (centres undefined)
157 to 159 | Cc1sc2nc(-c3ccccc3)nc(Cl)c2c1C
67 to 69 | Nc1cc(CC2CCCC2)no1
152 to 154 | NC(=S)c1cccc(O)c1
185 to 187 | NC(=O)c1sc2nc(C3CC3)cc(-c3ccccc3)c2c1N
202 to 204 | CC(C)=CC(=O)Nc1scc(-c2ccccc2)c1C(=O)O
115 to 117 | O=S(=O)(Cl)Cc1cc(-c2ccccc2)no1
95 to 97 | S=C1NCCO1
152 to 154 | Nc1nnc(-c2c(F)cccc2Cl)o1
254 to 256 | NC1(C(=O)O)Cc2ccccc2C1
48 to 52 | Cc1cc(N)n(CCO)n1
159 to 161 | COCc1c(C(=O)O)sc2ccccc12
135 to 137 | O=C(O)CCc1ccc2ccccc2c1
167 to 169 | NNc1ccc(S(=O)(=O)NC2CCCC2)cn1
110 to 112 | COc1ccc(Cl)cc1C(F)(F)C(=O)O

melting point [°C] | SMILES
98 to 100 | O=S(=O)(Cl)c1ccc2c(c1)COC2
68 to 70 | O=C(O)CC1(CO)CC1
105 to 107 | O=C(O)Cc1cnn(-c2ccccc2)n1
55 to 57 | Cc1ccc(OC(F)F)c(C(=O)CBr)c1
81 to 83 | N#Cc1ccc(S)c(Cl)c1
35 to 37 | COc1cc(CN)cc(OC)c1
126 to 128 | CC(C)(C)OC(=O)NC1(CC(=O)O)CCC1
142 to 144 | Cc1sc2nc(CCl)nc(Cl)c2c1C
230 to 232 | CCCn1c(=O)[nH]c(=O)c2c(C(=O)O)cc(-c3ccccc3)nc21
56 to 58 | COc1ccc(C=O)cc1Cl
173 to 175 | COC(=O)c1nc2n(n1)CCCN2
57 to 59 | OC1(CCOc2ccccc2)CC1
322 to 324 | Cn1c(=O)[nH]c(=O)c2[nH]c(CCC(=O)O)nc21
154 to 156 | O=C(O)CSc1ncn[nH]1
206 to 208 | Cc1ccc(C2(C)NC(=O)N(CC(=O)O)C2=O)cc1 (centres undefined)
169 to 171 | O=Cc1cc2c(cc1[N+](=O)[O-])OCCO2
196 to 198 | O=C(Nc1nccs1)C1CCNCC1
90 to 92 | NCc1ccccc1CS(=O)(=O)N1CCOCC1
111 to 113 | CC1CN=C(Nc2cccc(S(=O)(=O)N(C)C)c2)S1 (centres undefined)
118 to 120 | CCC(C)Oc1ccc(C(=O)O)cc1 (centres undefined)
207 to 209 | O=C1c2ccc([N+](=O)[O-])cc2C(=O)N1c1ccc(F)cc1
157 to 159 | O=C1OCCN1c1cc([N+](=O)[O-])ccc1Cl
44 to 46 | COc1ccccc1CC(C)(C)C(=O)O

SMILES | melting point [°C]
N#CCCNC(=O)CCl | 96 to 98
CN1CCN(c2ccc(N)nc2)CC1 | 119 to 121
COc1cc(OC)cc(C(O)CN)c1 (centres undefined) | 92 to 94
Cc1cc(NC(=O)CCl)n(C)n1 | 115 to 117
c1cc(C2CCCNC2)[nH]n1 (centres undefined) | 74 to 76
CN1CCOC(C(=O)c2ccc(Cl)cc2)C1 (centres undefined) | 59 to 61

Source: a melting point compilation (Tetko et al.)
